“And” between values parts separate entries of the source, which are not always exact repeats. Equal values may be shown once.

The test has as its target T1, Gal4-HNF4α (human HNF4α LBD) (Homo sapiens, UniProt P41235).
T1 construct: uniprot entry: P41235-1, residues 142-377; expressed in transfected cells; host or cells: HEK293T
T1 sequence (P41235 142-377): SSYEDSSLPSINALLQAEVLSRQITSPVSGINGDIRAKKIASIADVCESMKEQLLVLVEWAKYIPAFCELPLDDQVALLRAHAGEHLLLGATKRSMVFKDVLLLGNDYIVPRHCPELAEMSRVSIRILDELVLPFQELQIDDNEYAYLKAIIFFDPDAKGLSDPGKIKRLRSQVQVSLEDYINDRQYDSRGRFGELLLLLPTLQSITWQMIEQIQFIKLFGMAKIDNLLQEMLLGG
Nature of the test: Hybrid Gal4-HNF4α reporter gene assay in transiently transfected HEK293T cells. Type of test: cell-based. The conditions noted are these: Table S1, primary screening, 50 µM. (A reporter such as luciferase makes a cellular process visible.)
Turning to `COc1cc(C)cc(C)c1C` [Prestw-Frag-1506, COc1cc(C)cc(C)c1C], the “HNF4a-screening_activity_(mean_of_n=2)” value was determined as 1.143.

Turning to `C#Cc1cccc(N)c1` [Prestw-Frag-3669, Nc1cccc(c1)C#C], the “HNF4a-screening_activity_(mean_of_n=2)” value stood at 1.159.

For the molecule `Fc1cccnc1N1CCCC1` [Prestw-Frag-3150, Fc1cccnc1N1CCCC1], the “HNF4a-screening_activity_(mean_of_n=2)” value was 1.041.

In the case of `Cc1cc(=O)n(-c2ccccc2)[nH]1` [Prestw-Frag-1028, Cc1cc(=O)n([nH]1)-c1ccccc1], the “HNF4a-screening_activity_(mean_of_n=2)” value was 1.027.

Consider `COc1ccc(C(=O)O)cc1N1CCCC1` [Prestw-Frag-1313, COc1ccc(cc1N1CCCC1)C(O)=O], for which the “HNF4a-screening_activity_(mean_of_n=2)” value is 1.093.

Take `O=C(CCN1CCCCC1)c1ccccc1` [Prestw-Frag-1953, O=C(CCN1CCCCC1)c1ccccc1]: the “HNF4a-screening_activity_(mean_of_n=2)” value is on record as 0.8568.

For `Nc1ccc([N+](=O)[O-])cc1Cl` [Prestw-Frag-1543, Nc1ccc(cc1Cl)[N+]([O-])=O], the “HNF4a-screening_activity_(mean_of_n=2)” value is 0.9851.

Take `CCN(CC)C(=O)CC#N` [Prestw-Frag-3731, CCN(CC)C(=O)CC#N]: the “HNF4a-screening_activity_(mean_of_n=2)” value is reported as 0.9542.

`Nc1ccccc1S(N)(=O)=O` [Prestw-Frag-2473, Nc1ccccc1S(N)(=O)=O]: the “HNF4a-screening_activity_(mean_of_n=2)” value was determined as 1.395.

For `CNCCc1c[nH]c2ccccc12` [Prestw-Frag-1356, CNCCc1c[nH]c2ccccc12], the “HNF4a-screening_activity_(mean_of_n=2)” value is 0.7184 and 0.9553.

As for `COC(=O)CN1CCc2sccc2C1` [Prestw-Frag-3371, COC(=O)CN1CCc2sccc2C1], the “HNF4a-screening_activity_(mean_of_n=2)” value was 1.101.

Turning to `CCCCOc1cc(C(=O)NC)c2ccccc2n1` [Prestw-Frag-1228, CCCCOc1cc(C(=O)NC)c2ccccc2n1], the “HNF4a-screening_activity_(mean_of_n=2)” value is 0.8368 and 0.967.

For the molecule `Oc1cccc2[nH]ccc12` [Prestw-Frag-3696, Oc1cccc2[nH]ccc12], the “HNF4a-screening_activity_(mean_of_n=2)” value was found to be 0.9739.

Consider `Cc1cc(N)no1` [Prestw-Frag-1647, Cc1cc(N)no1], for which the “HNF4a-screening_activity_(mean_of_n=2)” value is given as 0.9773.

In the case of `O=C(O)c1cc(-c2ccc(F)cc2)ccc1O` [Prestw-Frag-1239, OC(=O)c1cc(ccc1O)-c1ccc(F)cc1], the “HNF4a-screening_activity_(mean_of_n=2)” value is 1.018 and 1.049.

Take `Nc1cccc(Nc2ncccn2)c1` [Prestw-Frag-2935, Nc1cccc(Nc2ncccn2)c1]: the “HNF4a-screening_activity_(mean_of_n=2)” value was found to be 1.004.

In the case of `NC(=O)C(c1ccccc1)c1ccccc1` [Prestw-Frag-2366, NC(=O)C(c1ccccc1)c1ccccc1], the “HNF4a-screening_activity_(mean_of_n=2)” value is given as 0.8824.

Turning to `c1ccc(CCn2ccnc2)cc1` [Prestw-Frag-2608, C(Cn1ccnc1)c1ccccc1], the “HNF4a-screening_activity_(mean_of_n=2)” value was 0.9707.

Turning to `Oc1cccc(CN2CCCCC2)c1` [Prestw-Frag-2809, Oc1cccc(CN2CCCCC2)c1], the “HNF4a-screening_activity_(mean_of_n=2)” value is on record as 1.12.

As for `COc1ccc(OC)c(C(C)O)c1` (centres unmarked) [Prestw-Frag-2208, COc1ccc(OC)c(c1)C(C)O], the “HNF4a-screening_activity_(mean_of_n=2)” value came to 1.098.

Turning to `COc1ccc(S(=O)(=O)N2CCNCC2)cc1` [Prestw-Frag-3313, COc1ccc(cc1)S(=O)(=O)N1CCNCC1], the “HNF4a-screening_activity_(mean_of_n=2)” value was determined as 1.073.

For the molecule `O=C(CCCN1CCNCC1)c1ccc(F)cc1` [Prestw-Frag-3426, Fc1ccc(cc1)C(=O)CCCN1CCNCC1], the “HNF4a-screening_activity_(mean_of_n=2)” value is given as 1.191.

`NCC(O)COc1cccc2ccccc12` (centres unmarked) [Prestw-Frag-1389, NCC(O)COc1cccc2ccccc12]: the “HNF4a-screening_activity_(mean_of_n=2)” value was 0.8528 and 1.218.

For the molecule `O=C1COc2cc(O)ccc21` [Prestw-Frag-3703, Oc1ccc2C(=O)COc2c1], the “HNF4a-screening_activity_(mean_of_n=2)” value was 1.217.

On to `Nc1ccc2c(c1)CCCC2` [Prestw-Frag-3682, Nc1ccc2CCCCc2c1], for which the “HNF4a-screening_activity_(mean_of_n=2)” value is reported as 0.958.

For the molecule `O=C(O)CCc1ncc(-c2ccccc2)o1` [Prestw-Frag-2693, OC(=O)CCc1ncc(o1)-c1ccccc1], the “HNF4a-screening_activity_(mean_of_n=2)” value was found to be 0.8237.

As to `COc1ccccc1OCCO` [Prestw-Frag-1338, COc1ccccc1OCCO], the “HNF4a-screening_activity_(mean_of_n=2)” value is 0.8769 and 0.9665.

With `COc1ccc(OCC(N)=O)cc1` [Prestw-Frag-1812, COc1ccc(OCC(N)=O)cc1], the “HNF4a-screening_activity_(mean_of_n=2)” value is 0.9996 and 1.207.

As to `COc1ccc(CCN)cc1O` [Prestw-Frag-1064, COc1ccc(CCN)cc1O], the “HNF4a-screening_activity_(mean_of_n=2)” value came out at 1.012.

Consider `CN1CCN(c2nccc(N)n2)CC1` [Prestw-Frag-1204, CN1CCN(CC1)c1nccc(N)n1], for which the “HNF4a-screening_activity_(mean_of_n=2)” value was found to be 1.248.

As to `COc1cc(C(N)=O)cc(OC)c1OC` [Prestw-Frag-1731, COc1cc(cc(OC)c1OC)C(N)=O], the “HNF4a-screening_activity_(mean_of_n=2)” value is given as 0.8442.

As to `c1cnc(N2CCNCC2)nc1` [Prestw-Frag-1398, C1CN(CCN1)c1ncccn1], the “HNF4a-screening_activity_(mean_of_n=2)” value is 1.074 and 0.9138.

Regarding `Cc1cn(-c2cc(N)cc(C(F)(F)F)c2)cn1` [Prestw-Frag-3241, Cc1cn(cn1)-c1cc(N)cc(c1)C(F)(F)F], the “HNF4a-screening_activity_(mean_of_n=2)” value is given as 1.061.

As to `CC(C)(C)OC(=O)/C=C/c1ccccc1` [Prestw-Frag-2947, CC(C)(C)OC(=O)\C=C\c1ccccc1], the “HNF4a-screening_activity_(mean_of_n=2)” value is on record as 1.247.

Take `c1ccc(Cn2ccnc2)cc1` [Prestw-Frag-2620, C(c1ccccc1)n1ccnc1]: the “HNF4a-screening_activity_(mean_of_n=2)” value was determined as 0.9802.

`COc1ccc(CCN2CCC(N)CC2)cc1` [Prestw-Frag-1051, COc1ccc(CCN2CCC(N)CC2)cc1]: the “HNF4a-screening_activity_(mean_of_n=2)” value came out at 1.433.

As to `OCc1ccc(O)cc1` [Prestw-Frag-2532, OCc1ccc(O)cc1], the “HNF4a-screening_activity_(mean_of_n=2)” value came to 1.028.

As for `Clc1cccc2ncccc12` [Prestw-Frag-2593, Clc1cccc2ncccc12], the “HNF4a-screening_activity_(mean_of_n=2)” value is reported as 0.9438.

On to `NC(=O)[C@H](N)c1ccccc1` [Prestw-Frag-1099, N[C@@H](C(N)=O)c1ccccc1], for which the “HNF4a-screening_activity_(mean_of_n=2)” value is 1.079.

Consider `COc1cc2ccncc2cc1OC` [Prestw-Frag-1183, COc1cc2ccncc2cc1OC], for which the “HNF4a-screening_activity_(mean_of_n=2)” value was determined as 1.218.

Take `O=C(O)Cc1ccccc1` [Prestw-Frag-2579, OC(=O)Cc1ccccc1]: the “HNF4a-screening_activity_(mean_of_n=2)” value is given as 1.086.

`c1ccc2c(c1)CCCN2` [Prestw-Frag-3137, C1CNc2ccccc2C1]: the “HNF4a-screening_activity_(mean_of_n=2)” value is reported as 0.9914.

For the molecule `Cc1oncc1C(N)=O` [Prestw-Frag-1128, Cc1oncc1C(N)=O], the “HNF4a-screening_activity_(mean_of_n=2)” value is 0.9735 and 0.9722.

Take `Nc1c(Cl)ccc2nsnc12` [Prestw-Frag-1492, Nc1c(Cl)ccc2nsnc12]: the “HNF4a-screening_activity_(mean_of_n=2)” value came to 1.089.

As for `CCCCOc1cc(C(=O)OC)ccc1N` [Prestw-Frag-2253, CCCCOc1cc(ccc1N)C(=O)OC], the “HNF4a-screening_activity_(mean_of_n=2)” value came to 0.8932.

Take `c1ccc(CNc2ccccn2)cc1` [Prestw-Frag-1475, C(Nc1ccccn1)c1ccccc1]: the “HNF4a-screening_activity_(mean_of_n=2)” value is given as 1.278.

Take `Nc1ncnc2c1ncn2CCO` [Prestw-Frag-3329, Nc1ncnc2n(CCO)cnc12]: the “HNF4a-screening_activity_(mean_of_n=2)” value was found to be 1.131.

For `c1nc(NC2CC2)c2nc[nH]c2n1` [Prestw-Frag-3360, C1CC1Nc1ncnc2[nH]cnc12], the “HNF4a-screening_activity_(mean_of_n=2)” value was 1.055.

For `Cc1cc(C)nc(O)n1` [Prestw-Frag-3247, Cc1cc(C)nc(O)n1], the “HNF4a-screening_activity_(mean_of_n=2)” value is 1.288.

On to `CCN1CCCC1CN` (centres unmarked) [Prestw-Frag-3671, CCN1CCCC1CN], for which the “HNF4a-screening_activity_(mean_of_n=2)” value amounted to 1.171.

As to `Oc1ccccc1N1CCNCC1` [Prestw-Frag-3738, Oc1ccccc1N1CCNCC1], the “HNF4a-screening_activity_(mean_of_n=2)” value is reported as 0.9708.

As for `COC(=O)C(CO)c1ccccc1` (centres unmarked) [Prestw-Frag-1406, COC(=O)C(CO)c1ccccc1], the “HNF4a-screening_activity_(mean_of_n=2)” value is 0.9811 and 0.9479.

On to `c1ccc2nccnc2c1` [Prestw-Frag-3033, c1ccc2nccnc2c1], for which the “HNF4a-screening_activity_(mean_of_n=2)” value turned out to be 0.9657.

Take `OC(Cn1ccnc1)c1ccc(Cl)cc1Cl` (centres unmarked) [Prestw-Frag-1182, OC(Cn1ccnc1)c1ccc(Cl)cc1Cl]: the “HNF4a-screening_activity_(mean_of_n=2)” value is 1.1.

For `CC1CCC(=O)O1` (centres unmarked) [Prestw-Frag-3757, CC1CCC(=O)O1], the “HNF4a-screening_activity_(mean_of_n=2)” value came out at 1.285.

On to `Clc1cccc(CN2CCNCC2)c1` [Prestw-Frag-1700, Clc1cccc(CN2CCNCC2)c1], for which the “HNF4a-screening_activity_(mean_of_n=2)” value was 1.014 and 1.092.

For `COc1ccc2ccncc2c1` [Prestw-Frag-1133, COc1ccc2ccncc2c1], the “HNF4a-screening_activity_(mean_of_n=2)” value was found to be 1.332.

`COC(=O)C(c1ccccc1)c1ccccc1` [Prestw-Frag-1013, COC(=O)C(c1ccccc1)c1ccccc1]: the “HNF4a-screening_activity_(mean_of_n=2)” value was 1.409 and 1.217.

Take `CC(=O)c1cc(Cl)ccc1O` [Prestw-Frag-1083, CC(=O)c1cc(Cl)ccc1O]: the “HNF4a-screening_activity_(mean_of_n=2)” value is recorded as 1.17.

For the molecule `CC(=O)N(CCC(=O)O)c1ccccc1` [Prestw-Frag-2487, CC(=O)N(CCC(O)=O)c1ccccc1], the “HNF4a-screening_activity_(mean_of_n=2)” value was 0.9613.

For `OCCOc1cccc2[nH]ccc12` [Prestw-Frag-1595, OCCOc1cccc2[nH]ccc12], the “HNF4a-screening_activity_(mean_of_n=2)” value was 0.8145 and 1.05.

On to `CN1CCN(c2ccc(N)cc2)CC1` [Prestw-Frag-3670, CN1CCN(CC1)c1ccc(N)cc1], for which the “HNF4a-screening_activity_(mean_of_n=2)” value amounted to 1.015.

On to `CC(=O)Nc1nncs1` [Prestw-Frag-1008, CC(=O)Nc1nncs1], for which the “HNF4a-screening_activity_(mean_of_n=2)” value was 1.066 and 0.8521.

As for `O=C(c1ccc(C(F)(F)F)cc1)C1CCCCC1` [Prestw-Frag-3334, FC(F)(F)c1ccc(cc1)C(=O)C1CCCCC1], the “HNF4a-screening_activity_(mean_of_n=2)” value is reported as 1.014.

Take `CCOc1ccccn1` [Prestw-Frag-2477, CCOc1ccccn1]: the “HNF4a-screening_activity_(mean_of_n=2)” value is listed as 1.372.

(Values after paper PMC7660650, “Chemical Starting Matter for HNF4α Ligand Discovery and Chemogenomics” (International Journal of Molecular Sciences, 2020).)
